Measured values published in publication PMC8041674 (European Journal of Nuclear Medicine and Molecular Imaging, 2020).
“And” between values parts separate entries of the source, which are not always exact repeats. Equal entries are not always repeated. Where two headings read alike, the source gives them in different places.

How the values were obtained:
[1] = Pharmacokinetic parameters of pridopidine in plasma; details: at steady state, 0 to 12 h after oral administration of pridopidine
sigma-1 receptor (S1R) [2] = target: T1, sigma-1 receptor (S1R) (Homo sapiens, UniProt Q99720); test: Test-retest [^18F] fluspidine PET substudy; format: in vivo; parameters: from tissue; host or cells: living human brain of male healthy volunteers and Huntington disease patients (in vivo PET); details: two HVs, no pridopidine, VT of first and second PET scan
Description: The test-retest variability of [18F]Fluspidine binding (VT) was estimated for two HVs (age 27.5±3.5 yrs; body weight 67.0±11.3 kg) from PET data acquired at the same time point of the day within 11 and 14 weeks. No pridopidine was administered before imaging. The test-retest variability was calculated using linear regression of the first and second PET scan. Test-retest analysis was performed to calculate the uncertainty of the RO estimate. As estimated by the slope values of the linear regression, the variability was 0.887 (11.3%; subject #1) and 1.008 (0.8%; subject #2)(Supplementary Fig. S7; Supplementary

plasma proteins = test: [^18F] fluspidine binding to plasma proteins (ultracentrifugation); format: in vitro ADME; details: human, read-out: fraction of free tracer in plasma, not bound to plasma proteins
sigma-1 receptor (S1R) [3] = target: T1, sigma-1 receptor (S1R); test: [^18F] fluspidine distribution volume (S1R availability), one-tissue compartment model; format: in vivo; parameters: from tissue; host or cells: living human brain of male healthy volunteers and Huntington disease patients (in vivo PET); VND, non-displaceable distribution volume: unit not given here
Source text: Application of the linear regression

D2/D3R = details: behaviorally effective doses, [^11C] Raclopride PET; cited from earlier work
sigma-1 receptor (S1R) [4] = target: T1, sigma-1 receptor (S1R); details: for mean RO (S1R): 90 mg pridopidine; for RO (%), sigma-1 receptor occupancy: PET 2 h post dose
Source text: This PET study consists of three PET substudies: the [^18F] fluspidine substudy (HVs, n = 11, HD, n = 3), the [^18F] fallypride substudy (HVs, n = 4), and the test-retest [^18F] fluspidine substudy (HVs, n = 2). All subjects were assigned to only one PET substudy. Subjects in the [^18F] fluspidine or [^18F] fallypride substudies were investigated twice within 4 weeks at the same time point of the day.
The doses were not established a priori but were based on the receptor occupancy results from previous cohort subjects. […] Because we observed near to complete S1R occupancy with 90 mg, we reduced the next dose to approximately one fourth. […] The total distribution volume VT of [^18F] fluspidine in the brain was computed from the corresponding TACs and the metabolite-corrected arterial input function using a one-tissue compartment model (1TCM).
The receptor occupancy (RO) is defined as the drug treatment-induced reduction of the receptor density. The values of RO are between 0 (no receptor occupancy) and 1 (100% receptor occupancy). […] Here, it is assumed that the non-displaceable distribution volume VND and the receptor occupancy RO have the same value in all brain regions. Application of the linear regression
1 VTPET1−VTPET2=ROVTPET1−VND yielded VND and RO. From the Lassen plot follows
2 RO=1−VTPET2−VND/VTPET1−VND

[5] = system: sigma-1 receptor (S1R) compared with D2R; details: in vitro and in vivo animal studies; cited from earlier work
sigma-1 receptor (S1R) [6] = target: T1, sigma-1 receptor (S1R); test: in vivo; details: for Emax: standard error in brackets
Description: Two models with Hill coefficient n fixed to 1 or optimized as a third parameter were investigated and characterized by the Akaike information criterion (AIC). Nonlinear parameter estimation was performed with Mathematica12 (Wolfram Research).

S1R = details: behaviorally effective doses, [^11C]SA4503 PET; cited from earlier work
[7] = system: sigma-1 receptor (S1R) compared with dopamine D3 receptor (D3R); details: in vitro and in vivo animal studies; cited from earlier work
[8] = system: Huntington disease patients; details: HD patients, 45 mg bid, week 52, PRIDE-HD; cited from earlier work
[9] = model plasma concentration Cavg2-4h (ng/ml), three-parameter Hill equation
[10] = model plasma concentration Cavg2-4h (ng/ml), two-parameter Hill equation (n = 1)
[11] = model weight adjusted dose (mg/kg), three-parameter Hill equation
[12] = model weight adjusted dose (mg/kg), two-parameter Hill equation (n = 1)

T1 sequence (Q99720 whole entry): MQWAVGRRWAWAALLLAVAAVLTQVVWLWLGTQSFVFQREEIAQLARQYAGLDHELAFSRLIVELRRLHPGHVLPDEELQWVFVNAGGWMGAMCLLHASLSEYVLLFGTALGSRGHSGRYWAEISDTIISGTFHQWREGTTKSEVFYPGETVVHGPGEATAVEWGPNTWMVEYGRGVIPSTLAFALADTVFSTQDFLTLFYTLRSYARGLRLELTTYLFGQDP

Compound: CS(=O)(=O)c1cccc(C2CCNCC2)c1 [TV45065]
- concentration of metabolite in plasma relative to unchanged pridopidine concentration [1]: less than 10%

Compound: FCC[C@@H]1OC2(CCN(Cc3ccccc3)CC2)c2ccccc21 [[^18F] fluspidine, (S)-(-)-[^18F] Fluspidine]
- test-retest variability, slope of the linear regression (sigma-1 receptor (S1R) [2]): 0.887 and 1.008
- fraction unbound (plasma proteins): 0.023 ± 0.007
- mean VT at baseline PET (sigma-1 receptor (S1R) [3]; HD (n = 3), cerebellum): 23.52 ± 12.66
- mean VT at baseline PET (sigma-1 receptor (S1R) [3]; HD (n = 3), corpus callosum): 8.89 ± 2.75
- mean VT at baseline PET (sigma-1 receptor (S1R) [3]; HD (n = 3), frontal cortex): 16.32 ± 6.76
- mean VT at baseline PET (sigma-1 receptor (S1R) [3]; HD (n = 3), medulla): 14.75 ± 7.28
- mean VT at baseline PET (sigma-1 receptor (S1R) [3]; HD (n = 3), midbrain): 16.46 ± 7.73
- mean VT at baseline PET (sigma-1 receptor (S1R) [3]; HD (n = 3), pons): 16.10 ± 8.74
- mean VT at baseline PET (sigma-1 receptor (S1R) [3]; HD (n = 3), striatum): 13.59 ± 5.98
- mean VT at baseline PET (sigma-1 receptor (S1R) [3]; HVs (n = 11), cerebellum, mean ± SD): 26.91 ± 4.49
- mean VT at baseline PET (sigma-1 receptor (S1R) [3]; HVs (n = 11), corpus callosum): 11.69 ± 2.40
- mean VT at baseline PET (sigma-1 receptor (S1R) [3]; HVs (n = 11), frontal cortex): 21.38 ± 3.37
- mean VT at baseline PET (sigma-1 receptor (S1R) [3]; HVs (n = 11), medulla): 16.63 ± 2.72
- mean VT at baseline PET (sigma-1 receptor (S1R) [3]; HVs (n = 11), midbrain): 19.31 ± 2.70
- mean VT at baseline PET (sigma-1 receptor (S1R) [3]; HVs (n = 11), pons): 19.13 ± 3.45
- mean VT at baseline PET (sigma-1 receptor (S1R) [3]; HVs (n = 11), striatum): 19.43 ± 2.95
- VND, non-displaceable distribution volume (sigma-1 receptor (S1R) [3]; Lassen plot, baseline vs post-pridopidine PET, patients with Huntington disease, individual subjects): 4.26 and 3.68 and 4.42

Compound: CCCN1CCC(c2cccc(S(C)(=O)=O)c2)CC1 [pridopidine]
- D2/D3R occupancy in rat brains (D2/D3R): low D2/D3R occupancy
- mean RO (S1R) (sigma-1 receptor (S1R) [4]; HD patients): 87.4%
- RO (%), sigma-1 receptor occupancy (sigma-1 receptor (S1R) [4]; healthy volunteer (n = 1), single dose 0.5 mg): 17.6%
- RO (%), sigma-1 receptor occupancy (sigma-1 receptor (S1R) [4]; healthy volunteer (n = 1), single dose 1 mg): 41.8%
- RO (%), sigma-1 receptor occupancy (sigma-1 receptor (S1R) [4]; healthy volunteer, individual subject, single dose 45 mg): 87.2%
- RO (S1R), mean (sigma-1 receptor (S1R) [4]; healthy volunteers, 5 mg pridopidine): 78.0 ± 1.7%
- mean RO (S1R) (sigma-1 receptor (S1R) [4]; healthy volunteers): 91.2%
- RO (%), sigma-1 receptor occupancy (sigma-1 receptor (S1R) [4]; healthy volunteers, individual subjects, single dose 5 mg): 76.8% and 79.2%
- RO (%), sigma-1 receptor occupancy (sigma-1 receptor (S1R) [4]; healthy volunteers, individual subjects, single dose 22.5 mg): 84.1% and 89.2% and 86.7%
- RO (%), sigma-1 receptor occupancy (sigma-1 receptor (S1R) [4]; healthy volunteers, individual subjects, single oral dose 90 mg): 88.8% and 89.1% and 95.7%
- RO (%), sigma-1 receptor occupancy (sigma-1 receptor (S1R) [4]; patients with Huntington disease, individual subjects, single dose 90 mg): 80.4% and 93.2% and 88.5%
- fold higher affinity towards S1R compared with D2R [5]: ~ 100 fold
- Emax (sigma-1 receptor (S1R) [6]; model dose (mg), three-parameter Hill equation, healthy volunteers): 0.90 (0.01)
- Emax (sigma-1 receptor (S1R) [6]; model dose (mg), two-parameter Hill equation (n = 1), healthy volunteers): 0.93 (0.02)
- EC90 (sigma-1 receptor (S1R) [6]; [9]): 0.018 µg/mL and 0.01757 µg/mL
- Emax (sigma-1 receptor (S1R) [6]; [9]): 0.89 (0.02)
- EC90 (sigma-1 receptor (S1R) [6]; [10]): 0.028 µg/mL and 0.02852 µg/mL
- Emax (sigma-1 receptor (S1R) [6]; [10]): 0.91 (0.02)
- EC90 (sigma-1 receptor (S1R) [6]; [11]): 0.084 mg/kg
- Emax (sigma-1 receptor (S1R) [6]; [11]): 0.89 (0.02)
- EC90 (sigma-1 receptor (S1R) [6]; [12]): 0.135 mg/kg
- Emax (sigma-1 receptor (S1R) [6]; [12]): 0.93 (0.02)
- Hill coefficient (sigma-1 receptor (S1R) [6]; three-parameter model, all situations (concentration, dose, adjusted weight dose)): > 1
- S1R occupancy in rat brains (S1R): high S1R occupancy
- fold higher affinity towards S1R compared with D3R [7]: ~ 30 fold
- decline from baseline in total functional capacity (TFC) compared with placebo [8]: significantly less decline from baseline
